Results as given in publication PMC9414584, “Synthesis and Biological Evaluation of Indole-2-Carboxamides with Potent Apoptotic Antiproliferative Activity as EGFR/CDK2 Dual Inhibitors” (Pharmaceuticals, 2022).
Values joined by “and” are separate entries in the source; they are usually repeats but may differ in a detail not shown here. Equal values may be shown once.

Legend:
[1] = Cell viability assay (MTT) on MCF-10A cells; assay type: cell-based; conditions: human, MCF-10A mammary gland epithelial cells
Procedure: (§1) The MCF-10A (human mammary gland epithelial) cell line was used in the cell viability experiment. Compounds 5a–k, 6a–c, and 7 were incubated with MCF-10A cells for 4 days at 50 µM concentration, and the viability of cells was determined using the 3-(4,5-dimethylthiazol-2-yl)-2,5-diphenyltetrazolium bromide (MTT) test.. All compounds had no cytotoxic effects, and the vitality of the cells was more than 83% for most of the compounds examined.
as §1, with “test.” for “test.. All compounds had no cytotoxic effects, and the vitality of the cells was more than 83% for most of the compounds examined.”

[2] = system: colon cancer cell line (HT-29); assay: Antiproliferative MTT assay, HT-29; assay type: cell-based; conditions: Homo sapiens; HT-29, MTT; read-out: Antiproliferative Activity IC50 ± SEM HT-29
Description: (§2) Using the MTT assay with doxorubicin as the reference drug, the antiproliferative activities of 5a–k, 6a–c, and 7 against four human cancer cell lines, including pancreas cancer cell line (Panc-1), breast cancer cell line (MCF-7), colon cancer cell line (HT-29), and epithelial cancer cell line (A-549) were investigated.

[3] = system: four human cancer cell lines (Panc-1, MCF-7, HT-29, A-549); assay: Antiproliferative MTT assay, average of four cancer cell lines (mean GI50); assay type: cell-based; conditions: for IC50: Homo sapiens, average of A-549, MCF-7, Panc-1, HT-29, read-out: Antiproliferative Activity IC50 Average (GI50 against the four cell lines); for fold less potent than 5e (mean GI50): ratio of mean GI50 vs compound 5e
[4] = system: pancreas cancer cell line (Panc-1); assay: Antiproliferative MTT assay, Panc-1; assay type: cell-based; conditions: Homo sapiens; Panc-1, MTT; read-out: Antiproliferative Activity IC50 ± SEM Panc-1
Description: as §2

[5] = biological target: CDK2 enzyme (Homo sapiens, UniProt P24941); assay: CDK2 inhibitory assay
[6] = biological target: EGFR (Homo sapiens, UniProt P00533); assay: EGFR-TK inhibitory assay; assay type: biochemical; conditions: read-out: EGFR Inhibition IC50 ± SEM
EGFR, sequence (P00533 25-1210): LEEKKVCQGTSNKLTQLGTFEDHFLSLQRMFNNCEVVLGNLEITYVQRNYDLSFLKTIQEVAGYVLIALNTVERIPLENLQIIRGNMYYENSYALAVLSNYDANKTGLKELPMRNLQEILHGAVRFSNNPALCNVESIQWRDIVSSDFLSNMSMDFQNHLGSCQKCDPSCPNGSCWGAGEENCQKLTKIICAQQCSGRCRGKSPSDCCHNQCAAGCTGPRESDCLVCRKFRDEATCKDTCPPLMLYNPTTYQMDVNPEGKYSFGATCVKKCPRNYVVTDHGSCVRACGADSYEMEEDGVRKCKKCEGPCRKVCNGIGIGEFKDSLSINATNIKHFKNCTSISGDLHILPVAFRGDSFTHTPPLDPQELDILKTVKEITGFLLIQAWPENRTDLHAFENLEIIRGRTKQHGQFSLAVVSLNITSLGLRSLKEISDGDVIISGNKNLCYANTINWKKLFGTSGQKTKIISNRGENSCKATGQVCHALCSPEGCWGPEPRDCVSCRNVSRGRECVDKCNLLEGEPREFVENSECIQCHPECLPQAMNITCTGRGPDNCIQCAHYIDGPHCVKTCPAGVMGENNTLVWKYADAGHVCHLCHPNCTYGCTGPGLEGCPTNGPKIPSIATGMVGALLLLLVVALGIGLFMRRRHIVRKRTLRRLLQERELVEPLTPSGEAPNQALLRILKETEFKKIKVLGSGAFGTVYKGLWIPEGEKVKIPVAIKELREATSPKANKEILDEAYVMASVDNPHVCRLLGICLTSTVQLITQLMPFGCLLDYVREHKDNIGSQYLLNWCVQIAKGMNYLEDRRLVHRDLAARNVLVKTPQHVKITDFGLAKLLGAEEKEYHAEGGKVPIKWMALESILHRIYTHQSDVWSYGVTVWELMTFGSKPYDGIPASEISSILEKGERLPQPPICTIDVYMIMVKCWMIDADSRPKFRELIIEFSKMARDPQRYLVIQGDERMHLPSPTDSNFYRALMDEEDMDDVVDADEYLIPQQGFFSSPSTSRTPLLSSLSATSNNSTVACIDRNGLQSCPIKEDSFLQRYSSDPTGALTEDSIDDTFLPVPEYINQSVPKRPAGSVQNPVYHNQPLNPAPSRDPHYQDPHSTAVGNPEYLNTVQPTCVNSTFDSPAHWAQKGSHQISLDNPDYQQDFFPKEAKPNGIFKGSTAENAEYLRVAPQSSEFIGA

[7] = system: epithelial cancer cell line (A-549); assay: Antiproliferative MTT assay, A-549; assay type: cell-based; conditions: Homo sapiens, A549; A-549, MTT; read-out: Antiproliferative Activity IC50 ± SEM A-549
Description: as §2

[8] = system: breast cancer cell line (MCF-7); assay: Antiproliferative MTT assay, MCF-7; assay type: cell-based; conditions: Homo sapiens, MCF7; MCF-7, MTT; read-out: Antiproliferative Activity IC50 ± SEM MCF-7
Description: as §2

[9] = system: Caspase-8 in MCF-7 breast cancer cell line; assay: Caspase-8 level in MCF-7 cells; assay type: cell-based, human
[10] = system: Caspase-3 in MCF-7 breast cancer cell line; assay: Caspase-3 level in MCF-7 cells
[11] = system: Cytochrome C in MCF-7 human breast cancer cell line; assay: Cytochrome C assay in MCF-7 cells; assay type: cell-based
Procedure: The quantity of cytochrome C within the cell is important for activating caspases and commencing the intrinsic apoptosis process. […] The findings add to the evidence that apoptosis can be attributed to Cytochrome C overexpression and activation of the intrinsic apoptotic pathway triggered by the investigated compounds.
Indole-2-carboxamide derivatives 5d, 5e, and 5h were evaluated as Cytochrome C activators in the MCF-7 human breast cancer cell line.

[12] = system: Caspase-9 in MCF-7 breast cancer cell line; assay: Caspase-9 level in MCF-7 cells; assay type: cell-based, human
[13] = system: p53 in MCF-7; assay: p53 transcription/level in MCF-7; assay type: cell-based, human; conditions: MCF-7 cells
Description: p53 is a unique protein that participates in several physiological processes such as cell metabolism, stem cell maintenance, and cell adhesion. Because p53 is frequently inactivated in cancer cells, the cells are unable to undergo apoptosis. Similarly, activating, or stabilizing p53 aids cancer cells in normalizing p53-controlled physiological processes and increasing apoptotic activity.

[14] = system: Bax in breast cancer cell line (MCF-7); assay: Bax level assay in MCF-7 cells; assay type: cell-based, human
[15] = system: Bcl-2 in breast cancer cell line (MCF-7); assay: Bcl-2 level assay in MCF-7 cells; assay type: cell-based, human

Row | Compound | melting point [°C] | IC50 [2] [µM] | IC50 [3] [µM] | IC50 [4] [µM] | IC50 [5] [µM] | IC50 [7] [µM] | IC50 [8] [µM] | viability at 4 days, 50 µM [1] [%] | other results
1 | Cc1c(C(=O)NCCc2ccc(N3CCCCC3)cc2)[nH]c2c(Cl)cc(Cl)cc12 [Compound 5h, 5,7-Dichloro-3-methyl-N-(4-(piperidin-1-yl)phenethyl)-1H-indole-2-carboxamide] | 178 to 180 | 1.2 ± 0.1 | 1.1 | 1.2 ± 0.1 | 0.011 ± 0.001 | 1 ± 0.1 | 0.9 ± 0.1 | 87 | Caspase-8 Conc [9]: 1.88 ng/mL; Caspase-8 Fold Change ([9]; vs control cells): 9.50 fold; Caspase-3 Conc [10]: 537.50 ± 5.00 pg/mL; Caspase-3 Fold Change ([10]; vs control untreated cells): 8.20 fold; Cytochrome C Conc [11]: 0.65 ng/mL; Cytochrome C Fold Change ([11]; vs untreated control cells): 13 fold; Caspase-9 Conc [12]: 16.65 ng/mL; Caspase-9 Fold Change ([12]; vs control cells): 17.50 fold; IC50 [6]: 0.118 ± 0.01 µM
2 | Cc1c(C(=O)NCCc2ccccc2)[nH]c2cc(Cl)ccc12 [Compound 5f, 6-Chloro-3-methyl-N-phenethyl-1H-indole-2-carboxamide] | 170 to 172 | 2.1 ± 0.2 | 1.95 | 2.1 ± 0.2 | – | 1.9 ± 0.2 | 1.7 ± 0.2 | 90 | times more potent than 5a ([3]; vs compound 5a): 1.9 times
3 | Cc1c(C(=O)NCCc2ccccc2)[nH]c2ccc(Cl)cc12 [Compound 5a, 5-Chloro-3-methyl-N-phenethyl-1H-indole-2-carboxamide] | 182 to 184 | 3.9 ± 0.3 | 3.7 | 3.9 ± 0.3 | – | 3.7 ± 0.3 | 3.2 ± 0.3 | 89 | fold less potent than 5e (mean GI50) [3]: roughly four-fold
4 | Cc1c(C(=O)NCCc2ccc(N3CCCCC3)cc2)[nH]c2cc(Cl)ccc12 [Compound 5g, 6-Chloro-3-methyl-N-(4-(piperidin-1-yl)phenethyl)-1H-indole-2-carboxamide] | 218 to 220 | 5.1 ± 0.5 | 5 | 5.2 ± 0.5 | – | 4.9 ± 0.5 | 4.8 ± 0.5 | 89 | times lower antiproliferative efficacy than 5c ([3]; vs compound 5c): 3 times
5 | Cc1c(C(=O)NCCc2ccc(N3CCOCC3)cc2)[nH]c2ccc(Cl)cc12 [Compound 5d, 5-Chloro-3-methyl-N-(4-morpholinophenethyl)-1H-indole-2-carboxamide] | 210 to 212 | 1.1 ± 0.1 | 1.05 | 1.1 ± 0.1 | 0.023 ± 0.002 | 1.05 ± 0.1 | 0.9 ± 0.1 | 89 | p53 Conc [13]: 1375 pg/mL and 1375 ± 15 pg/mL; Bax Conc [14]: 290 pg/mL and 289.70 ± 2.50 pg/mL; Caspase-8 Conc [9]: 1.94 ng/mL; Caspase-3 Conc [10]: 570.00 ± 5.00 pg/mL; Cytochrome C Conc [11]: 0.70 ng/mL; Bcl-2 Conc [15]: 0.89 ng/mL; Caspase-9 Conc [12]: 16.90 ng/mL
6 | Cc1c(C(=O)NCCc2ccc(N3CCOCC3)cc2)[nH]c2c(Cl)cc(Cl)cc12 [Compound 5i, 5,7-Dichloro-3-methyl-N-(4-morpholinophenethyl)-1H-indole-2-carboxamide] | 185 to 187 | 1.65 ± 0.2 | 1.5 | 1.6 ± 0.2 | 0.027 ± 0.003 | 1.55 ± 0.2 | 1.3 ± 0.1 | 90 | IC50 [6]: 0.137 ± 0.012 µM
7 | Cc1c(C(=O)NCCc2ccc(N(C)C)cc2)[nH]c2ccc(Cl)cc12 [Compound 5b, 5-Chloro-N-(4-(dimethylamino)phenethyl)-3-methyl-1H-indole-2-carboxamide] | 202 to 204 | 3.6 ± 0.3 | 3.3 | 3.5 ± 0.3 | – | 3.2 ± 0.3 | 2.9 ± 0.3 | 87 | –
8 | Cc1c(C(=O)NCCc2ccc(N3CCCCC3)cc2)[nH]c2ccc(Cl)cc12 [Compound 5c, 5-Chloro-3-methyl-N-(4-(piperidin-1-yl)phenethyl)-1H-indole-2-carboxamide] | 216 to 218 | 1.8 ± 0.2 | 1.7 | 1.8 ± 0.2 | – | 1.7 ± 0.2 | 1.4 ± 0.2 | 87 | fold less potent than 5e (mean GI50) [3]: at least 1.8 fold; fold reduction of mean GI50 potency vs 5d ([3]; ratio of mean GI50 vs compound 5d): ≥ 1.6 fold

Now from value to compound, other results behind:

Row | melting point [°C] | IC50 [2] [µM] | IC50 [3] [µM] | IC50 [4] [µM] | IC50 [5] [µM] | IC50 [7] [µM] | IC50 [8] [µM] | Compound | viability at 4 days, 50 µM [1] [%] | other results
9 | 198 to 200 | 1.3 ± 0.1 | 1.2 | 1.3 ± 0.1 | 0.034 ± 0.003 | 1.2 ± 0.1 | 1 ± 0.1 | Cc1c(C(=O)NCCc2ccccc2)[nH]c2c(F)cc(F)cc12 [Compound 5j, 5,7-Difluoro-3-methyl-N-phenethyl-1H-indole-2-carboxamide] | 83 | IC50 [6]: 0.098 ± 0.008 µM
10 | 203 to 205 | 4.6 ± 0.4 | 4.3 | 4.4 ± 0.4 | – | 4.1 ± 0.4 | 4 ± 0.4 | Cc1c(C(=O)NCc2ccccc2)[nH]c2ccc(Cl)cc12 [Compound 7, N-Benzyl-5-chloro-3-methyl-1H-indole-2-carboxamide] | 91 | –
11 | 165 to 167 | 2.9 ± 0.2 | 2.8 | 2.8 ± 0.2 | – | 2.9 ± 0.3 | 2.6 ± 0.2 | Cc1c(C(=O)N2CCN(c3ccccc3)CC2)[nH]c2ccc(Cl)cc12 [Compound 6a, (5-Chloro-3-methyl-1H-indol-2-yl)(4-phenylpiperazin-1-yl)methanone] | 90 | –
12 | 192 to 194 | 1.5 ± 0.2 | 1.4 | 1.5 ± 0.2 | 0.019 | 1.4 ± 0.2 | 1.2 ± 0.1 | Cc1c(C(=O)NCCc2ccc(N3CCCCC3)cc2)[nH]c2c(F)cc(F)cc12 [Compound 5k, 5,7-Difluoro-3-methyl-N-(4-(piperidin-1-yl)phenethyl)-1H-indole-2-carboxamide] | 87 | IC50 [6]: 0.129 ± 0.011 µM
13 | 180 to 182 | 2.8 ± 0.2 | 2.6 | 2.65 ± 0.2 | – | 2.5 ± 0.2 | 2.3 ± 0.2 | Cc1c(C(=O)N2CCN(c3ccccc3)CC2)[nH]c2cc(Cl)ccc12 [Compound 6b, (6-Chloro-3-methyl-1H-indol-2-yl)(4-phenylpiperazin-1-yl)methanone] | 91 | –
14 | 171 to 173 | 2.5 ± 0.2 | 2.3 | 2.4 ± 0.2 | – | 2.2 ± 0.2 | 2.1 ± 0.2 | Cc1c(C(=O)N2CCN(c3ccccc3)CC2)[nH]c2c(F)cc(F)cc12 [Compound 6c, (5,7-Difluoro-3-methyl-1H-indol-2-yl)(4-phenylpiperazin-1-yl)methanone] | 89 | –
